Results: US10065957B2, “Beta-lactamase inhibitors” (Novartis AG, priority 2016, dated 2018)

Key:
Type in all cases: cell-based
[1] = system: E. coli ATCC 25922, K. pneumoniae ATCC 43816, P. aeruginosa ATCC 27853; assay: Direct antibacterial activity of BLIs alone, summary of Table A; details: BLI alone, in words
Experimental: MICs were determined by the broth microdilution method in accordance with Clinical and Laboratories Institute (CLSI) guidelines. In brief, fresh overnight bacterial cultures were suspended in sterile saline, and adjusted to a 0.5 McFarland turbidity standard. Bacterial suspensions were then diluted in cation adjusted Mueller-Hinton Broth (MHB II; BBL) to yield a final inoculum of approximately 5×10^5 colony-forming units (CFU)/mL. A master plate of antibiotics was prepared at a concentration equivalent to hundred-fold the highest desired final concentration in 100% dimethyl sulfoxide (DMSO). The master antibiotic plate was then diluted by serial twofold dilution with a multichannel pipette. The resulting dilution series of compounds were diluted 1:10 with sterile water or a solution of beta-lactamase inhibitor prepared at a concentration equivalent to eleven-fold the desired final concentration in deionized water leading to a 10% DMSO final concentration. […] The assay plates were read using a microtiter plate reader (Molecular Devices) at 600 nm as well as by visual observation with a reading mirror. The lowest concentration of the compound that prevented visible growth was recorded as the MIC. Performance of the assay was monitored by testing aztreonam against laboratory quality control strains in accordance with guidelines of the CLSI.

E. coli (KPC-2) = assay: microbe, parasite or virus in culture; details: E. coli (KPC-2); for MIC of aztreonam with beta-lactamase inhibitor: AZ + BLI at 2 μg/mL; for Activity of Beta-Lactam 5 with beta-lactamase inhibitor: Beta-Lactam 5 + BLI at 2 μg/mL; for MIC of ceftazidime with beta-lactamase inhibitor: Ceft + BLI at 2 μg/mL; for MIC of meropenem with beta-lactamase inhibitor: Mero + BLI at 2 μg/mL
Experimental: (§1) MICs were determined by the broth microdilution method in accordance with Clinical and Laboratories Institute (CLSI) guidelines. In brief, fresh overnight bacterial cultures were suspended in sterile saline, and adjusted to a 0.5 McFarland turbidity standard. Bacterial suspensions were then diluted in cation adjusted Mueller-Hinton Broth (MHB II; BBL) to yield a final inoculum of approximately 5×10^5 colony-forming units (CFU)/mL. A master plate of antibiotics was prepared at a concentration equivalent to hundred-fold the highest desired final concentration in 100% dimethyl sulfoxide (DMSO). The master antibiotic plate was then diluted by serial twofold dilution with a multichannel pipette. The resulting dilution series of compounds were diluted 1:10 with sterile water or a solution of beta-lactamase inhibitor prepared at a concentration equivalent to eleven-fold the desired final concentration in deionized water leading to a 10% DMSO final concentration. A volume of 10 μL of the drug dilution series was transferred to 96-well assay plates. Assay plates were inoculated with 90 μL of bacterial suspensions and incubated at 35° C. for 20 hrs. The assay plates were read using a microtiter plate reader (Molecular Devices) at 600 nm as well as by visual observation with a reading mirror. The lowest concentration of the compound that prevented visible growth was recorded as the MIC.
(§2) Synergy or potentiation of beta-lactam antibiotics through inhibition of Q-lactamases was assessed against an isogenic panel of E. coli strains, each expressing a unique beta-lactamase, and against clinical strains.
(§3) Strain NB27273 (BW25113 pspB::Km^r) was obtained from the Keio transposon insertion collection. The strain has the pspB gene replaced by a kanamycin resistance marker (BW25113 pspB::Km^r). This strain was cured of the transposon in pspB via FLP recombinase using published methodology. The resulting strain, BW25113 pspB, was used as a host for multicopy vectors expressing key beta-lactamases. Multicopy plasmids directing constitutive expression of beta-lactamases were established as follows: Synthetic, codon optimized genes encoding E. coli KPC-2, SHV-12 and CTX-M-15 beta-lactamases were made by DNA2.0 (Palo Alto, Calif.). Each of the synthetic fragments were designed to contain NotI and NcoI restriction sites at their termini, allowing ligation into a NotI/NcoI digested pET28a(+) derivative for protein expression. […] The codon optimized nucleotide sequences and relevant primer recognition information is shown below:
(§4) The PCR products were then digested with XhoI and EcoRI and ligated into similarly digested plasmid pAH63-pstS(BlaP). […] Therefore, expression of beta-lactamases from pAH63-pstS(BlaP) based constructs is constitutive and the signal sequence is provided to direct these proteins to the periplasm. […] These fragments were then digested with XbaI and EcoRI, and each was inserted into pBAD18-kan that had been digested with the same enzymes to generate multicopy vectors expressing KPC-2, SHV-12 and CTX-M-15, respectively. These vectors were transformed into BW25113 pspB to generate strains NB27273-CDY0033 (expressing KPC-2), NB27273-CDY0030 (expressing SHV-12), NB27273-CDY0034 (expressing CTX-M-15) and NB27273-CDY0036 (expressing AmpC). The pBAD18-kan vector also contains the TEM promoter region and signal sequence, (but lacks any intact beta-lactamase genes) and was transformed into BW25113 pspB using standard protocols to generate the control strain NB27273-CDY0026.

E. coli (CTX-M-15) = assay: microbe, parasite or virus in culture; details: for MIC of aztreonam with beta-lactamase inhibitor: AZ + BLI at 2 μg/mL; for Activity of Beta-Lactam 5 with beta-lactamase inhibitor: Beta-Lactam 5 + BLI at 2 μg/mL; for MIC of ceftazidime with beta-lactamase inhibitor: Ceft + BLI at 2 μg/mL; for MIC of meropenem with beta-lactamase inhibitor: Mero + BLI at 2 μg/mL
Experimental: as §1, §2, §3, §4

E. coli (SHV-12) = assay: microbe, parasite or virus in culture; details: for MIC of aztreonam with beta-lactamase inhibitor: AZ + BLI at 2 μg/mL; for Activity of Beta-Lactam 5 with beta-lactamase inhibitor: Beta-Lactam 5 + BLI at 2 μg/mL; for MIC of ceftazidime with beta-lactamase inhibitor: Ceft + BLI at 2 μg/mL; for MIC of meropenem with beta-lactamase inhibitor: Mero + BLI at 2 μg/mL
Experimental: as §1, §2, §3, §4

E. coli (OXA-18) = assay: microbe, parasite or virus in culture; details: for MIC of aztreonam with beta-lactamase inhibitor: AZ + BLI at 2 μg/mL; for Activity of Beta-Lactam 5 with beta-lactamase inhibitor: Beta-Lactam 5 + BLI at 2 μg/mL; for MIC of ceftazidime with beta-lactamase inhibitor: Ceft + BLI at 2 μg/mL; for MIC of meropenem with beta-lactamase inhibitor: Mero + BLI at 2 μg/mL; for MIC of piperacillin with beta-lactamase inhibitor: Pip + BLI at 2 μg/mL
Experimental: as §1, §2
Construction of E. coli isogenic strains, NB27273-CDY0105 (OXA-18) and NB27273-CDY0048 (TEM-10). […] The gene encoding OXA-18 was then digested with XhoI and EcoRI and inserted into this vector, from which the gene for GIM-1 had been removed with XhoI and EcoRI.
These final vectors for expression of OXA-18 and TEM-10 were transformed into BW25113 pspB to generate strains NB27273-CDY0105 (expressing OXA-18) and NB27273-CDY0048 (expressing TEM-10).

[2] = system: Enterobacter cloacae NB25055 (CMY-2); assay: Potentiation of piperacillin in beta-lactam resistant clinical isolate; details: Pip + BLI at 2 μg/mL
Experimental: as §1, with “MIC. Performance of the assay was monitored by testing aztreonam against laboratory quality control strains in accordance with guidelines of the CLSI.” for “MIC.”
as §2

S. aureus NB01437 (BLA+) = assay: as above; details: Pip + BLI at 2 μg/mL
Experimental: as §1, with “MIC. Performance of the assay was monitored by testing aztreonam against laboratory quality control strains in accordance with guidelines of the CLSI.” for “MIC.”
as §2

[3] = system: K. pneumoniae NB29082 (KPC-2); assay: as above; details: Pip + BLI at 2 μg/mL
Experimental: as §1, with “MIC. Performance of the assay was monitored by testing aztreonam against laboratory quality control strains in accordance with guidelines of the CLSI.” for “MIC.”
as §2

`NC(=O)[C@@H]1CC[C@@H]2CN1C(=O)N2OS(=O)(=O)O` [Avibactam] was tested, and the direct antibacterial activity [1] was “exhibit direct antibacterial activity”, the “MIC of aztreonam with beta-lactamase inhibitor” value (E. coli (KPC-2)) was 0.125 µg/mL and the “Activity of Beta-Lactam 5 with beta-lactamase inhibitor” value (E. coli (KPC-2)) was 0.125 µg/mL. The “MIC of ceftazidime with beta-lactamase inhibitor” value (E. coli (KPC-2)) was 0.25 µg/mL, the “MIC of meropenem with beta-lactamase inhibitor” value (E. coli (KPC-2)) was ≤0.06 µg/mL and the “MIC of aztreonam with beta-lactamase inhibitor” value (E. coli (CTX-M-15)) was 0.125 µg/mL. For the same compound, the “Activity of Beta-Lactam 5 with beta-lactamase inhibitor” value (E. coli (CTX-M-15)) was 0.25 µg/mL, the “MIC of ceftazidime with beta-lactamase inhibitor” value (E. coli (CTX-M-15)) was 0.25 µg/mL and the “MIC of meropenem with beta-lactamase inhibitor” value (E. coli (CTX-M-15)) was ≤0.06 µg/mL. The “MIC of aztreonam with beta-lactamase inhibitor” value (E. coli (SHV-12)) was 1 µg/mL, the “Activity of Beta-Lactam 5 with beta-lactamase inhibitor” value (E. coli (SHV-12)) was 0.125 µg/mL and the “MIC of ceftazidime with beta-lactamase inhibitor” value (E. coli (SHV-12)) was 0.5 µg/mL. The “MIC of meropenem with beta-lactamase inhibitor” value (E. coli (SHV-12)) was ≤0.06 µg/mL, the “MIC of aztreonam with beta-lactamase inhibitor” value (E. coli (OXA-18)) was 1 µg/mL and the “Activity of Beta-Lactam 5 with beta-lactamase inhibitor” value (E. coli (OXA-18)) was 0.125 µg/mL. The “MIC of ceftazidime with beta-lactamase inhibitor” value (E. coli (OXA-18)) was 0.5 µg/mL, the “MIC of meropenem with beta-lactamase inhibitor” value (E. coli (OXA-18)) was ≤0.06 µg/mL and the “MIC of piperacillin with beta-lactamase inhibitor” value (E. coli (OXA-18)) was 2 µg/mL.
In the case of `O=C1NC[C@@H]2C[C@@H]3CN(C(=O)N3OS(=O)(=O)[O-])[C@H]12.[Na+]` [Example 1, Sodium (4R,5aS,8aS)-2,8-dioxohexahydro-2H-1,4-methanopyrrolo[3,4-d][1,3]diazepin-3(4H)-yl sulfate], the direct antibacterial activity [1] is reported as “does not exhibit much direct antibiotic activity”, the “MIC of aztreonam with beta-lactamase inhibitor” value (E. coli (KPC-2)) is reported as 0.125 µg/mL and the “Activity of Beta-Lactam 5 with beta-lactamase inhibitor” value (E. coli (KPC-2)) is reported as 0.25 µg/mL. For the same compound, the “MIC of ceftazidime with beta-lactamase inhibitor” value (E. coli (KPC-2)) was 0.125 µg/mL, the “MIC of meropenem with beta-lactamase inhibitor” value (E. coli (KPC-2)) was ≤0.06 µg/mL and the “MIC of aztreonam with beta-lactamase inhibitor” value (E. coli (CTX-M-15)) was ≤0.06 µg/mL. The “Activity of Beta-Lactam 5 with beta-lactamase inhibitor” value (E. coli (CTX-M-15)) was 0.25 µg/mL, the “MIC of ceftazidime with beta-lactamase inhibitor” value (E. coli (CTX-M-15)) was 0.25 µg/mL and the “MIC of meropenem with beta-lactamase inhibitor” value (E. coli (CTX-M-15)) was ≤0.06 µg/mL. For the same compound, the “MIC of aztreonam with beta-lactamase inhibitor” value (E. coli (SHV-12)) was 0.25 µg/mL, the “Activity of Beta-Lactam 5 with beta-lactamase inhibitor” value (E. coli (SHV-12)) was 0.25 µg/mL and the “MIC of ceftazidime with beta-lactamase inhibitor” value (E. coli (SHV-12)) was 0.25 µg/mL. The “MIC of meropenem with beta-lactamase inhibitor” value (E. coli (SHV-12)) was ≤0.06 µg/mL, the “Activity of piperacillin with beta-lactamase inhibitor” value [2] was 4 µg/mL and the “Activity of piperacillin with beta-lactamase inhibitor” value (S. aureus NB01437 (BLA+)) was 1 µg/mL. The “Activity of piperacillin with beta-lactamase inhibitor” value [3] was 8 µg/mL, the “MIC of aztreonam with beta-lactamase inhibitor” value (E. coli (OXA-18)) was 1 µg/mL and the “Activity of Beta-Lactam 5 with beta-lactamase inhibitor” value (E. coli (OXA-18)) was 0.25 µg/mL. For the same compound, the “MIC of ceftazidime with beta-lactamase inhibitor” value (E. coli (OXA-18)) was 0.5 µg/mL, the “MIC of meropenem with beta-lactamase inhibitor” value (E. coli (OXA-18)) was ≤0.06 µg/mL and the “MIC of piperacillin with beta-lactamase inhibitor” value (E. coli (OXA-18)) was 2 µg/mL.
`O=C(NC1CCNCC1)[C@@H]1CC[C@@H]2CN1C(=O)N2OS(=O)(=O)O` [Relebactam] was tested, and the “MIC of aztreonam with beta-lactamase inhibitor” value (E. coli (KPC-2)) was 1 µg/mL, the “Activity of Beta-Lactam 5 with beta-lactamase inhibitor” value (E. coli (KPC-2)) was 0.125 µg/mL and the “MIC of ceftazidime with beta-lactamase inhibitor” value (E. coli (KPC-2)) was 0.25 µg/mL. The “MIC of meropenem with beta-lactamase inhibitor” value (E. coli (KPC-2)) was ≤0.06 µg/mL, the “MIC of aztreonam with beta-lactamase inhibitor” value (E. coli (CTX-M-15)) was 0.5 µg/mL and the “Activity of Beta-Lactam 5 with beta-lactamase inhibitor” value (E. coli (CTX-M-15)) was 0.25 µg/mL. For the same compound, the “MIC of ceftazidime with beta-lactamase inhibitor” value (E. coli (CTX-M-15)) was 0.5 µg/mL, the “MIC of meropenem with beta-lactamase inhibitor” value (E. coli (CTX-M-15)) was ≤0.06 µg/mL and the “MIC of aztreonam with beta-lactamase inhibitor” value (E. coli (SHV-12)) was 32 µg/mL. For the same compound, the “Activity of Beta-Lactam 5 with beta-lactamase inhibitor” value (E. coli (SHV-12)) was 0.125 µg/mL, the “MIC of ceftazidime with beta-lactamase inhibitor” value (E. coli (SHV-12)) was 8 µg/mL and the “MIC of meropenem with beta-lactamase inhibitor” value (E. coli (SHV-12)) was ≤0.06 µg/mL. The “MIC of aztreonam with beta-lactamase inhibitor” value (E. coli (OXA-18)) was >64 µg/mL, the “Activity of Beta-Lactam 5 with beta-lactamase inhibitor” value (E. coli (OXA-18)) was 0.25 µg/mL and the “MIC of ceftazidime with beta-lactamase inhibitor” value (E. coli (OXA-18)) was >64 µg/mL. For the same compound, the “MIC of meropenem with beta-lactamase inhibitor” value (E. coli (OXA-18)) was ≤0.06 µg/mL and the “MIC of piperacillin with beta-lactamase inhibitor” value (E. coli (OXA-18)) was >32 µg/mL.
